Reference: ChEMBL document CHEMBL1201862, “PubChem BioAssay data set” (2004)
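Results reflect a 48-hour exposure of cells in 96-well plates to compound at five concentrations. Abbreviation: GI50, concentration required for 50% inhibition of growth.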 Activity calls are given as the source filed them. Rule as the data show it: active = GI50 up to about 1.1 µM and inactive = higher.

Columns and labels:
Assay in all cases: inhibition of tumour cell growth, NCI panel, 48 h
K562 = system: K562
EKVX = system: EKVX
SF-539 = system: SF-539
DU-145 = system: DU-145
SK-MEL-5 = system: SK-MEL-5
ACHN = system: ACHN
CCRF-CEM = system: CCRF-CEM
LOX IMVI = system: LOX IMVI
UACC-62 = system: UACC-62
OVCAR-3 = system: OVCAR-3
SN12C = system: SN12C
HCT-15 = system: HCT-15
SW-620 = system: SW-620
M14 = system: M14
KM12 = system: KM12
SNB-19 = system: SNB-19
NCI-H522 = system: NCI-H522
NCI-H23 = system: NCI-H23
HOP-62 = system: HOP-62
Malme-3M = system: Malme-3M

Measured: GI50

CCCCOCn1c(=O)[nH]c(=O)c2ccccc21
inactive: K562 > 100 µM | EKVX 44.9 µM | SF-539 > 100 µM | DU-145 > 100 µM | SK-MEL-5 54.1 µM | ACHN 32.9 µM | CCRF-CEM > 100 µM | LOX IMVI > 100 µM | UACC-62 > 100 µM | OVCAR-3 > 100 µM | SN12C > 100 µM | SW-620 > 100 µM | M14 > 100 µM | KM12 > 100 µM | SNB-19 14.9 µM
> 100 µM: HCT-15

ClC1=C(Cl)C2OC3C=CCC3OC2C(Cl)=C1Cl (stereo not drawn)
32.1 µM: HCT-15
inactive: K562 37.8 µM | EKVX 44.1 µM | SF-539 > 100 µM | NCI-H522 32.2 µM | DU-145 > 100 µM | SK-MEL-5 29.5 µM | ACHN 91 µM | CCRF-CEM 40.1 µM | LOX IMVI 52 µM | NCI-H23 56.4 µM | OVCAR-3 > 100 µM | SW-620 41.2 µM | M14 > 100 µM | KM12 40.6 µM | HOP-62 > 100 µM

CC(C)=NN/C(=N\c1ccc(Cl)cc1)NS(=O)(=O)c1ccc(C)cc1
> 100 µM: HCT-15
inactive: K562 69.3 µM | EKVX 52.6 µM | NCI-H522 56.8 µM | DU-145 47.9 µM | SK-MEL-5 60.3 µM | ACHN 40.5 µM | CCRF-CEM > 100 µM | LOX IMVI 87.7 µM | NCI-H23 > 100 µM | UACC-62 49 µM | OVCAR-3 31.1 µM | SN12C 84.5 µM | SW-620 > 100 µM | Malme-3M 61.2 µM | M14 > 100 µM | KM12 85.7 µM | HOP-62 69 µM | SNB-19 > 100 µM

COc1cccc2c(=O)c3c(O)c4cc(N(C)C)ccc4c(OC(C)=O)c3oc12
12.7 µM: HCT-15
inactive: K562 15.6 µM | EKVX 12.5 µM | SF-539 17.2 µM | DU-145 17.8 µM | SK-MEL-5 12.6 µM | ACHN 15.2 µM | CCRF-CEM 5.33 µM | LOX IMVI 12 µM | NCI-H23 17.2 µM | UACC-62 12.9 µM | OVCAR-3 4 µM | SN12C 12.9 µM | SW-620 7.41 µM | Malme-3M 2.56 µM | M14 9.98 µM | KM12 13 µM | HOP-62 15 µM | SNB-19 33.2 µM

NC(=O)c1cc2ccccc2o/c1=N/c1ccccc1
> 100 µM: HCT-15
inactive: K562 > 100 µM | EKVX > 100 µM | SF-539 > 100 µM | DU-145 > 100 µM | SK-MEL-5 > 100 µM | ACHN > 100 µM | CCRF-CEM > 100 µM | LOX IMVI > 100 µM | NCI-H23 > 100 µM | UACC-62 > 100 µM | OVCAR-3 > 100 µM | SN12C > 100 µM | SW-620 > 100 µM | Malme-3M > 100 µM | M14 > 100 µM | KM12 > 100 µM | HOP-62 > 100 µM | SNB-19 > 100 µM

Nc1nc(SCc2ccccn2)c2ncn(C3CCCC3)c2n1
> 100 µM: HCT-15
inactive: K562 > 100 µM | EKVX > 100 µM | NCI-H522 59.7 µM | DU-145 > 100 µM | SK-MEL-5 > 100 µM | ACHN > 100 µM | CCRF-CEM > 100 µM | LOX IMVI > 100 µM | NCI-H23 > 100 µM | UACC-62 > 100 µM | OVCAR-3 > 100 µM | SN12C > 100 µM | SW-620 > 100 µM | Malme-3M 82 µM | M14 > 100 µM | KM12 > 100 µM | HOP-62 > 100 µM | SNB-19 > 100 µM

CN1CCN(/C(N)=C(\C#N)C(=O)Nc2ccc(Cl)cc2)CC1
57.9 µM: HCT-15
inactive: K562 23 µM | EKVX 78.2 µM | SF-539 > 100 µM | DU-145 79.3 µM | SK-MEL-5 27.5 µM | ACHN > 100 µM | CCRF-CEM 30.1 µM | LOX IMVI 47.9 µM | NCI-H23 67 µM | UACC-62 23 µM | OVCAR-3 41.7 µM | SN12C > 100 µM | SW-620 > 100 µM | M14 30.6 µM | KM12 59 µM | HOP-62 > 100 µM | SNB-19 > 100 µM

O=C(O)CN(CC(=O)O)Cc1cc2c(cc1O)Oc1cc(O)c(CN(CC(=O)O)CC(=O)O)cc1C21OC(=O)c2ccccc21 [OFTASCEINE]
> 100 µM: HCT-15
inactive: K562 > 100 µM | EKVX > 100 µM | SF-539 > 100 µM | NCI-H522 > 100 µM | DU-145 > 100 µM | SK-MEL-5 > 100 µM | ACHN > 100 µM | CCRF-CEM > 100 µM | LOX IMVI > 100 µM | NCI-H23 > 100 µM | UACC-62 > 100 µM | OVCAR-3 > 100 µM | SN12C > 100 µM | SW-620 > 100 µM | M14 > 100 µM | KM12 > 100 µM | HOP-62 > 100 µM | SNB-19 > 100 µM

Nc1nncc2[nH]nnc12
> 100 µM: HCT-15
active: K562 0.186 µM
inactive: EKVX > 100 µM | SF-539 > 100 µM | DU-145 > 100 µM | SK-MEL-5 16.5 µM | ACHN > 100 µM | CCRF-CEM 11 µM | NCI-H23 > 100 µM | UACC-62 > 100 µM | OVCAR-3 > 100 µM | SN12C > 100 µM | SW-620 83.6 µM | M14 > 100 µM | KM12 > 100 µM | HOP-62 > 100 µM | SNB-19 > 100 µM

O[C@H]1[C@H](O)[C@@H](O)[C@H](O)[C@@H](O)[C@H]1O [INOSITOL]
inactive: K562 > 1000 µM | SF-539 > 1000 µM | DU-145 > 1000 µM | SK-MEL-5 > 1000 µM | ACHN > 1000 µM | CCRF-CEM 1.7 µM | LOX IMVI > 1000 µM | NCI-H23 > 1000 µM | UACC-62 > 1000 µM | OVCAR-3 > 1000 µM | SN12C > 1000 µM | SW-620 > 1000 µM | Malme-3M > 1000 µM | M14 > 1000 µM | HOP-62 > 1000 µM | SNB-19 > 1000 µM
> 1000 µM: HCT-15

CCN(CC)CCN1CCN=C2c3cc(OC)ccc3Nc3c([N+](=O)[O-])ccc1c32
0.845 µM: HCT-15
inactive: EKVX 1.69 µM | DU-145 2.8 µM | SK-MEL-5 1.55 µM | LOX IMVI 1.41 µM | Malme-3M 1.54 µM | KM12 1.15 µM
active: K562 0.575 µM | CCRF-CEM 0.388 µM | NCI-H23 1.1 µM | UACC-62 1 µM | SN12C 0.667 µM | SW-620 0.449 µM | M14 1 µM | HOP-62 0.56 µM

Cc1ccc(N2C3=C(CC4=C2CC(C)(C)CC4=O)C(=O)CC(C)(C)C3)cc1
inactive: K562 > 100 µM | EKVX > 100 µM | SF-539 > 100 µM | DU-145 > 100 µM | SK-MEL-5 > 100 µM | ACHN > 100 µM | CCRF-CEM > 100 µM | LOX IMVI > 100 µM | NCI-H23 > 100 µM | UACC-62 > 100 µM | OVCAR-3 > 100 µM | SN12C > 100 µM | SW-620 > 100 µM | Malme-3M > 100 µM | M14 > 100 µM | KM12 > 100 µM | HOP-62 > 100 µM | SNB-19 > 100 µM
> 100 µM: HCT-15

COC(=O)C1=C(C(=O)OC)SC(=C2SC3=C(SC(=C4SCCS4)S3)S2)S1
inactive: K562 > 100 µM | EKVX > 100 µM | NCI-H522 > 100 µM | DU-145 > 100 µM | SK-MEL-5 > 100 µM | ACHN > 100 µM | CCRF-CEM > 100 µM | LOX IMVI > 100 µM | NCI-H23 > 100 µM | UACC-62 > 100 µM | SN12C > 100 µM | SW-620 > 100 µM | Malme-3M > 100 µM | M14 > 100 µM | KM12 > 100 µM | HOP-62 > 100 µM | SNB-19 > 100 µM

CC(=O)c1c(O)ccc2c1c1c(n2C)C(=O)c2ccccc2C1=O
> 100 µM: HCT-15
active: Malme-3M 0.0128 µM
inactive: K562 > 100 µM | EKVX 3.24 µM | SF-539 3.08 µM | DU-145 3.21 µM | SK-MEL-5 3.29 µM | CCRF-CEM 3.69 µM | LOX IMVI 3.24 µM | OVCAR-3 1.81 µM | HOP-62 6.53 µM | SNB-19 7.28 µM

OC[C@H]1O[C@@H](Oc2cc(O)cc(/C=C/c3ccc(O)cc3)c2)[C@H](O)[C@@H](O)[C@@H]1O [PICEID]
inactive: K562 > 100 µM | EKVX > 100 µM | SF-539 > 100 µM | NCI-H522 > 100 µM | DU-145 > 100 µM | SK-MEL-5 > 100 µM | ACHN > 100 µM | CCRF-CEM > 100 µM | LOX IMVI > 100 µM | UACC-62 > 100 µM | OVCAR-3 > 100 µM | SN12C > 100 µM | SW-620 > 100 µM | KM12 > 100 µM | HOP-62 > 100 µM | SNB-19 > 100 µM
> 100 µM: HCT-15

CCOC(=O)c1sc2c(C(=O)OCC)n3ccccc3c2c1N
> 100 µM: HCT-15
inactive: K562 > 100 µM | EKVX 59.4 µM | SF-539 64.1 µM | NCI-H522 20.3 µM | SK-MEL-5 > 100 µM | ACHN 52.8 µM | CCRF-CEM > 100 µM | LOX IMVI > 100 µM | NCI-H23 43.6 µM | UACC-62 > 100 µM | OVCAR-3 > 100 µM | SN12C 96.8 µM | SW-620 > 100 µM | Malme-3M > 100 µM | M14 > 100 µM | KM12 > 100 µM | HOP-62 19.2 µM | SNB-19 31.7 µM
